In PubChem BioAssay AID504560 (Southern Research Specialized Biocontainment Screening …, 2011):

Test system: human PBMC HIV-1 CCR5-tropic replication, RT activity
Assay: antiviral activity, R5 HIV-1 in human PBMC – cell-based, set 2, dose response (AID 504560)

Structure (SMILES) | IC50 [µM]
Cc1c2c(=O)n(-c3nc4ccccc4s3)nc-2cc(O)n1CCc1cccs1 | 3.47
Cc1c2c(=O)n(-c3nc4ccccc4s3)nc-2cc(O)n1CCc1ccc(O)cc1 | 1.51
Cc1c2c(=O)n(-c3nc4ccccc4s3)nc-2cc(O)n1Cc1ccccc1 | 2.42
Cc1c2c(=O)n(-c3nc4ccccc4s3)nc-2cc(O)n1Cc1cccnc1 | 0.92
COc1ccc(Cn2c(O)cc3nn(-c4nc5ccccc5s4)c(=O)c-3c2C)cc1 | 2.29
COc1ccc(CCn2c(O)cc3nn(-c4nc5ccccc5s4)c(=O)c-3c2C)cc1 | 6.11
Cc1c2c(=O)n(-c3nc4ccccc4s3)nc-2cc(O)n1CCC(C)C | 5.4
Cc1c2c(=O)n(-c3nc4ccccc4s3)nc-2cc(O)n1Cc1ccncc1 | 1.89
Cc1c2c(=O)n(-c3nc4ccccc4s3)nc-2cc(O)n1C1CC1 | 0.72
COc1ccccc1Cn1c(O)cc2nn(-c3nc4ccccc4s3)c(=O)c-2c1C | 5.4
Cc1c2c(=O)n(-c3nc4ccccc4s3)nc-2cc(O)n1Cc1cccs1 | 1.97
Cc1c2c(=O)n(-c3nc4ccccc4s3)nc-2cc(O)n1Cc1ccccc1Cl | 6.31
Cc1c2c(=O)n(-c3nc4ccccc4s3)nc-2cc(O)n1Cc1ccc(F)cc1 | 3.14
